The values below come from US20220064167A1, “IMIDAZO-PYRAZOLE CARBOXAMIDE DERIVATIVES AS ANTICANCER AGENTS AND THE SYNTHESIS THEREOF” (AVIDIN KFT., priority 2018, published 2022).

Assay [1] has as its system U87MG (human glioblastoma). The assay is described as follows: viability assay (Table 2). The format is cell-based. The conditions noted are these: U-87 MG, read-out: IC50 U87. How it is done:
(§1) For viability assays cells were seeded in 96 well plates (MCF7 and 4T1: 6000, HL60: 120.000 cells/well) and incubated overnight. Compounds were dissolved in dimethyl sulfoxide (DMSO). Cells were treated with an increasing concentration of compounds having the general formula (I.) (156 nM-100 μM). Cell viability was determined after 72h incubation. Resazurin reagent (Sigma-Aldrich) was dissolved in PBS (pH 7.4) at 0.15 mg/ml concentration, sterile filtered (0.22 μm, Merck Millipore) and aliquoted at −20° C. Resazurin reagent (Sigma-Aldrich) was added at a final concentration of 25 μg/ml. After 2 hours incubation at 37° C. 5% CO2 fluorescence (530 nm excitation/580 nm emission) was recorded on a multimode microplate reader (Cytofluor4000, PerSeptive Biosytems). Viability was calculated with relation to untreated control cells and blank wells containing media without cells. IC50 values (50% inhibiting concentration) were calculated by GraphPad Prism® 5 (La Jolla, Calif., USA).
(§2) GBM2 (human glioblastoma), HeLa (human cervical carcinoma), MIA PaCa-2 (human pancreas carcinoma) and U87MG (human glioblastoma) cells were maintained in Dulbecco's Modified Eagle Medium (DMEM) 10% fetal calf serum (FCS, Gibco). A375 (human melanoma), A549 (human lung adenocarcinoma) and HEP3B (human hepatoma) cells were maintained in Dulbecco's Modified Eagle Medium/Nutrient Mixture F-12 (DMEM/F12) 10% FCS.
(§3) Media were supplemented with 2 mM GlutaMAX, and 100 U/mL penicillin, 100 μg/mL streptomycin (Life Technologies, Carlsbad, Calif., USA). Cell cultures were maintained at 37° C. in a humidified incubator in an atmosphere of 5% CO2 (Sanyo, Japan).
(§4) Viability assays were performed as described in Example 102.

Another assay relates to HEP3B (human hepatoma). The assay is described as follows: viability assay (Table 2). The format is cell-based. As to the method: as §1, §2, §3, §4
The test system of another assay is CD11b on HL-60 cells. The assay is described as follows: flow cytometry of cell surface CD11b (FIG. 3B). The format is cell-based, human. The settings on record: HL-60, 24, 48 and 72 h after treatment. How it is done:
Experiments detecting CD11b expression by Flow cytometric immunofluorescence were done as described in Example 104 without fixation and permeabilization. Native cell surface staining was done by CD11b-FITC (Immunotools cat number 21389113), with 1:20 dilution 24, 48 and 72 h after treatment.

Assay [2] relates to HeLa (human cervical carcinoma). The assay is described as follows: viability assay (Table 2). The assay is classed as cell-based. As to the method: as §1, §2, §3, §4

SMILES strings stand for the structures. Entries after “also recorded” stand apart in the source; their conditions may differ.

With `CC(C)(C)Nc1c(C(C)(C)C)[nH]c2c(C(=O)Nc3ccc(F)cc3)cnn12` [Example 60, 2-(Tert-butyl)-N-(4-fluorophenyl)-3-((tert-butyl-2-yl)amino)-1H-imidazo[1,2-b]pyrazole-7-carboxamide], the IC50 (in assay [1]; in the assay on HEP3B (human hepatoma)) was 250 nM in each case.
For `CC(C)(C)Nc1c(C(C)(C)C)[nH]c2c(C(=O)Nc3ccc(N)cc3)cnn12` [Example 83, N-(4-Aminophenyl)-2-(tert-butyl)-3-(tert-butylamino)-1H-imidazo[1,2-b]pyrazole-7-carboxamide], in the assay with CD11b on HL-60 cells, the “matured myeloid cell marker CD11b on the cell surface” value is on record as “elevation; also recorded: elevated”. In assay [2], this compound registered an IC50 of 100 nM.
